Assay [1] concerns the target T1, Interleukin-1 receptor-associated kinase 4 (Homo sapiens, UniProt Q9NWZ3).
T1 sequence (Q9NWZ3 whole entry): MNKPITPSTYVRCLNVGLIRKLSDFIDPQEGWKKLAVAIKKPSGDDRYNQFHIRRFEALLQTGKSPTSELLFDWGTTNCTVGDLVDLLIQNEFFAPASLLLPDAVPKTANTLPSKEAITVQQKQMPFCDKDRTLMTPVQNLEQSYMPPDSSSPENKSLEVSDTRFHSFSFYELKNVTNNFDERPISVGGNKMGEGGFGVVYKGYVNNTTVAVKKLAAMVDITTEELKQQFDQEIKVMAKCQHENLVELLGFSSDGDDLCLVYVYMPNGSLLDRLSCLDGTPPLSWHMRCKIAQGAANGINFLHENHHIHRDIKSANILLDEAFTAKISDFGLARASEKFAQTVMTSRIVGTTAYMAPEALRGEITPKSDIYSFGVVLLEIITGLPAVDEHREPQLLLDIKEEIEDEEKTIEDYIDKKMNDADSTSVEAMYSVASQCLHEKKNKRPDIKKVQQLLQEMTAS
Briefly: IRAK4 Enzymatic Assay: IRAK4 is a human purified recombinant enzyme ([…] IRAK4 hydrolyses ATP, autophosphorylates and phosphorylates a Serine/Threonine generic peptidic substrate (STK: 61ST1BLC from CisBio International based in Bagnols/Cèze FR).Measurement of IRAK-4 inhibition is performed in streptavidin coated 384 well FlashPlate (PerkinElmer #SMP410A). His-TEV-IRAK4 (20 ng/well), ATP (2 μM, [33P]ATP 0.25 μCi/well), STK1-biotin peptide (300 nM) and compounds in DMSO (range of concentrations from 20 μM to 1 nM) or controls (2% DMSO) are incubated for 3 hours at 30° C. in assay buffer: Hepes pH 7.0 50 mM, Fatty acid-free BSA 0.1%, Dithiothreitol DTT 2 mM, MgCl2 10 mM, EGTA 0.5 mM, Tween-20 0.01%, MnCl2 5 mM.Kinase reaction is stopped by addition of EDTA. Supernatant is discarded, plates are washed three times with 150 mM NaCl and radioactivity is then measured in a Microbeta Trilux reader.

Assay [2] has as its target Interleukin-1 receptor-associated kinase 1 (Homo sapiens, UniProt P51617). Briefly: IRAK1 Enzymatic Assay: IRAK1 is a human purified recombinant enzyme (His-TEV-IRAK1 (194-712)) In this assay, IRAK-1 hydrolyses ATP and autophosphorylates.Measurement of IRAK-1 inhibition is performed in streptavidin coated 384 well FlashPlate (PerkinElmer #SMP410A).His-TEV-IRAK-1 (15 ng/well), ATP (1 μM, [33P]ATP 0.25 μCi/well) and compounds in DMSO (range of concentrations from 20 μM to 1 nM) or controls (2% DMSO) are incubated for 3 hours at 30° C. in assay buffer: Hepes pH 7.0 50 mM, Fatty acid-free BSA 0.1%, Dithiothreitol DTT 2 mM, MgCl2 10 mM, EGTA 0.5 mM, Triton-X-100 0.01%. Kinase reaction is stopped by addition of EDTA. Supernatant is discarded, plates are washed three times with 150 mM NaCl and radioactivity is then measured in a Microbeta Trilux reader.

For 1 compound, IC50 results are on record in ChEMBL document CHEMBL5725580, “Macrocyclic pyridazinone derivatives” (2018).

Chain of Interleukin-1 receptor-associated kinase 1 (P51617 whole entry): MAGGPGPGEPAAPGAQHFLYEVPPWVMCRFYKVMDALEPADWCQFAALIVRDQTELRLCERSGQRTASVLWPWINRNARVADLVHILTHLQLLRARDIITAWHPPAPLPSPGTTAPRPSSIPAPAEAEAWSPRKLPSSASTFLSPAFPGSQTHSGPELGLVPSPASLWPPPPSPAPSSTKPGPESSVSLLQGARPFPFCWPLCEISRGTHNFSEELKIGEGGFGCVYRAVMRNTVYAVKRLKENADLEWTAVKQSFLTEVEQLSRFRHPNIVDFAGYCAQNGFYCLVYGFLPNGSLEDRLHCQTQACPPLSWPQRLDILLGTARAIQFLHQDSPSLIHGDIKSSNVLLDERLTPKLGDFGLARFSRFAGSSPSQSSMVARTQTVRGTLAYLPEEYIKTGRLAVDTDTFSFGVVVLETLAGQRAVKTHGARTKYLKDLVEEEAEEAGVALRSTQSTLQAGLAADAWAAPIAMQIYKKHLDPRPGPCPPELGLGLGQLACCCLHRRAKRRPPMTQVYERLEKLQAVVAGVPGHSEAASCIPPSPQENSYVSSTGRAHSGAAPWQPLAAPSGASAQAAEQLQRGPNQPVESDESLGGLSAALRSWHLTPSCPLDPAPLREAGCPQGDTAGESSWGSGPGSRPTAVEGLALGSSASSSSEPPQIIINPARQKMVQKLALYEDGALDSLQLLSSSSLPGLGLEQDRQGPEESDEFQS

With `O=C1Nc2nc3ccccc3n2CCn2cc(cn2)-c2ccc(=O)n(n2)Cc2cccc1c2`, the IC50 in assay [1] and in assay [2] was below 100 nM in each case.

For orientation: IC50 means the midpoint of a concentration-inhibition curve.
